Experimental data: US11168319B1, “Plant cell culture” (Inari Agriculture Technology, Inc., priority 2017, dated 2021)
Several values for one entry are separate records, joined by “and”; a condition that tells them apart may be missing. Identical values can stand only once. Like-named read-outs stand apart in the source and are kept apart here.

Columns and labels:
maize B104 protoplasts = test: Cell division rate by EdU staining (% EdU); details: O2 5%, Ca^2+ 100 mM, glutathione 0 mM, 90 h
Description: Cell division rates are expressed as “% EdU” (percentage of cells displaying the EdU signal relative to the total cell count).
Cell division was monitored, e.g., by microscopic observations. […] Evidence of cell division was observed by microscopy and included increased cell or protoplast size, bulging membranes, and large groups of organelles occupying the separating daughter cells. Quantification of cell division was carried out using fluorescent staining. […] Cells that are the result of cellular division in the presence of EdU were identified by the resulting green fluorescent signal, which can be quantified by various means, e.g., with a microplate reader, cell counter, or cell sorter.
Entire wells (1000 microliters) were taken for EdU detection at three time points; analyses were of duplicate samples of each of two replicate wells.

maize A188 protoplasts [1] = test: Protoplast viability (Evans blue staining / light microscope / hemocytometer); type: cell-based; details: for Viability (%): 100 mM Ca; for viability / appearance: 50 millimolar; for protoplast viability: 288 hours, YPIM B- medium
Description: Separate suspensions of maize B73 and A188 protoplasts (2×10^5 cells per milliliter) were prepared in YPIM B-liquid medium containing various combinations of the added salts calcium chloride, potassium ascorbate, and magnesium chloride or magnesium sulfate. One-half milliliter aliquots of the suspensions were dispensed into a 24-well microtiter plate in the arrangement shown in Table 2, which lists the concentrations of calcium chloride (“Ca”), potassium ascorbate (“A”), and magnesium chloride (“MgCl2”) or magnesium sulfate (“MgSO4”) in millimolar values.
Viability was judged by Evans blue staining and visualization under a light microscope.
Separate suspensions of maize A188 protoplasts (2×10^5 cells per milliliter) were prepared in YPIM B-liquid medium containing calcium chloride at 0 or 50 millimolar. One-half milliliter aliquots of the suspensions were dispensed into a 24-well microtiter plate.
(§1) Viability was judged by visualization under a light microscope.
Separate suspensions of maize B73 and A188 protoplasts (2×10^5 cells per milliliter) were prepared in PIM B-liquid medium (identical to YPIM B-medium except with the 6-benzylaminopurine substituted with 0.022 milligrams/L thidiazuron) containing calcium chloride added at 0 or 50 millimolar. One-half milliliter aliquots of the suspensions were dispensed into a 24-well microtiter plate.
Separate suspensions of maize B73 and A188 protoplasts (2×10^5 cells per milliliter) were prepared in YPIM B-liquid medium containing (a) calcium chloride added at 100 millimolar, or (b) 1 millimolar glutathione, or (c) no added calcium or glutathione. One-milliliter aliquots of the suspensions were dispensed into a 24-well microtiter plate. At 16, 40, 64, and 136 hours of culture, 50-microliter samples were taken for hemocytometer analysis from each well; for the plates containing maize A188 protoplasts, parallel 50-microliter samples were taken from a replicate well at 16, 40, and 64 hours of culture for quantification using a Cellometer cell counter (Nexcelom Bioscience LLC, Lawrence, Mass.).
Viability was determined by Evans blue staining and quantification using a hemocytometer. Under conditions with high concentrations of calcium, Evans blue can create precipitates that interfere with cell counting; to prevent this, 5 microliters of an EDTA solution was added to the samples from the wells containing 100 millimolar calcium chloride immediately prior to staining.

maize HiIIA protoplasts = test: Cell division rate by EdU staining (% EdU); type: cell-based; details: 100 mM Ca^2+
Description: (§2) Cell division was monitored, e.g., by microscopic observations. […] Evidence of cell division was observed by microscopy and included increased cell or protoplast size, bulging membranes, and large groups of organelles occupying the separating daughter cells. Quantification of cell division was carried out using fluorescent staining. Cells were treated with the thymidine analogue 5-ethynyl-2′-deoxyuridine (EdU), which is incorporated into DNA during S-phase and can be fluorescently activated using a fluorochrome that has been conjugated to an azide molecule. Cells that are the result of cellular division in the presence of EdU were identified by the resulting green fluorescent signal, which can be quantified by various means, e.g., with a microplate reader, cell counter, or cell sorter.
In a separate experiment, maize HiIIA protoplasts were grown in 24-well plates using YPIM B-liquid medium containing 100 millimolar Ca^2+ and 20 micromolar EdU. Identical plates were incubated under hypoxia (5% oxygen by volume, 26 degrees Celsius, 80% relative humidity) or ambient oxygen (21% oxygen by volume, 26 degrees Celsius, 80% relative humidity). Entire wells (250 microliters) were taken for EdU detection at four time points. The contents of each well was centrifuged and the pellet subjected to the Click-iT™ EdU Alexa Fluor™ 488 Imaging Kit (catalogue number C10337, Thermo Fisher Scientific, Waltham, Mass.) fluorescent labelling protocol. The labelled protoplasts were resuspended in YPIM B-medium and samples analyzed on a Nexcelom Cellometer (Nexcelom Bioscience LLC, Lawrence, Mass.). This assay was developed to detect the EdU signal from the nucleus of a cell resulting from cell division, as well as the fluorescent signal from chloroplasts as a measure of total cell count. Results are provided in Table 4 as a percentage of cells displaying the EdU signal relative to the total cell count (“% EdU”).

[2] = test system: maize protoplasts (A188, B73, B104, HiIIA, HiIIB); test: Protoplast viability by light microscope, five maize germplasm lines; type: cell-based; details: 34 hours, across the five maize lines
From the text: as §1

[3] = test system: winter wheat, soy, and strawberry protoplasts; test: Protoplast viability by light microscope, other species; type: cell-based; details: day 8, 0, 50 or 100 millimolar calcium
Description: (§3) Separate suspensions of maize B73, winter wheat, soy, and strawberry protoplasts (2×10^5 cells per milliliter) were prepared in YPIM B-liquid medium containing calcium chloride at 0, 50, or 100 millimolar. One-half milliliter aliquots of the suspensions were dispensed into a 24-well microtiter plate.
Viability at day 8 of culture was judged by visualization under a light microscope.

maize A188 protoplasts [4] = test: Signs of cell division by microscopy under 5% or 21% oxygen; type: cell-based; details: day 8, 100 millimolar Ca^2+ in YPIM B-, 5% oxygen vs 21% oxygen by volume
Description: as §2
In one experiment, maize A188 protoplasts were grown under either 5% or 21% oxygen by volume in YPIM B-liquid medium containing 100 millimolar Ca^2+.

soybean protoplasts = test: Protoplast viability (Evans blue staining, light microscope); type: cell-based
Description: as §3
Viability at day 13 was judged by Evans blue staining and visualization under a light microscope.

**Q.** Which “EdU staining mean %” value (maize B104 protoplasts) does the source give for [Ca+2].[Cl-].[Cl-] [calcium chloride] here?
**A.** The value was 21.9%.

**Q.** What about the “Viability (%)” value (maize A188 protoplasts [1]; 0 hours, hemocytometer) of the same molecule?
**A.** Its value is 90%.

**Q.** And the “Viability (%)” value (maize A188 protoplasts [1]; 16 hours)?
**A.** Its value is 67%.

**Q.** What about the “Viability (%)” value (maize A188 protoplasts [1]; 40 hours) of the same molecule?
**A.** Its value is 57%.

**Q.** What about the “Viability (%)” value (maize A188 protoplasts [1]; 64 hours) of the same molecule?
**A.** The value was 59%.

**Q.** What about the “Viability (%)” value (maize A188 protoplasts [1]; 136 hours) of the same molecule?
**A.** The value was 46%.

**Q.** And the viability / appearance (maize A188 protoplasts [1]; 96 hours, vs no added calcium)?
**A.** Its viability / appearance is “appeared healthier”.

**Q.** And the viability / appearance (maize A188 protoplasts [1]; 168 hours (7 days))?
**A.** The viability / appearance was “very many large, healthy-looking protoplasts”.

**Q.** And the protoplast viability (maize A188 protoplasts [1]; 50 mM added salt)?
**A.** Its protoplast viability is “about 20%”.

**Q.** And the protoplast viability (maize A188 protoplasts [1]; 100 mM added salt)?
**A.** Its protoplast viability is “about 70%”.

**Q.** And the viability (maize A188 protoplasts [1]; day 6, PIM B- medium, 50 millimolar calcium, several wells)?
**A.** The viability was 100%.

**Q.** And the “cell wall regeneration and cell division” value (maize A188 protoplasts [1]; day 20, 50 millimolar)?
**A.** Its value is “had generated cell walls and undergone at least some cell division”.

**Q.** What about the “% EdU” value (maize HiIIA protoplasts; 5% oxygen by volume, 93 hours) of the same molecule?
**A.** The value was 12%.

**Q.** And the “% EdU” value (maize HiIIA protoplasts; 5% oxygen by volume, 117 hours)?
**A.** Its value is 19%.

**Q.** What about the “% EdU” value (maize HiIIA protoplasts; 5% oxygen by volume, 165 hours, listed as Ca^2+) of the same molecule?
**A.** The value was 19% and 15%.

**Q.** What about the “% EdU” value (maize HiIIA protoplasts; 21% oxygen by volume, 93 hours) of the same molecule?
**A.** Its value is 6.5%.

**Q.** What about the “% EdU” value (maize HiIIA protoplasts; 21% oxygen by volume, 117 hours, listed as Ca^2+) of the same molecule?
**A.** Its value is 6.9% and 8.0%.

**Q.** And the “% EdU” value (maize HiIIA protoplasts; 21% oxygen by volume, 141 hours, listed as Ca^2+)?
**A.** The value was 13% and 4.8%.

**Q.** What about the “% EdU” value (maize HiIIA protoplasts; 21% oxygen by volume, 165 hours, listed as Ca^2+) of the same molecule?
**A.** Its value is 5.0% and 0.0%.

**Q.** And the viability ([2]; 50 millimolar calcium)?
**A.** The viability was “about 55%”.

**Q.** And the viability ([2]; 100 millimolar calcium)?
**A.** Its viability is “about 70%”.

**Q.** And the viability [3]?
**A.** Its viability is “no large differences”.

**Q.** What about the “signs of cell division” value (maize A188 protoplasts [4]) of the same molecule?
**A.** The value was “many more protoplasts displaying signs of cell division”.

**Q.** What about the viability (soybean protoplasts; day 13, 50 millimolar calcium) of the same molecule?
**A.** Its viability is 50%.

**Q.** And the viability (soybean protoplasts; day 13, 100 millimolar calcium)?
**A.** The viability was 50%.

**Q.** What about the plant protoplast viability (plant protoplasts; about 40 millimolar or about 50 millimolar) of the same molecule?
**A.** The plant protoplast viability was “Even higher levels of plant protoplast viability”.

**Q.** What about the protoplast viability (plant protoplasts; between or about 50 to about 100 millimolar, several titration experiments) of the same molecule?
**A.** Its protoplast viability is “greatest improvement in protoplast viability”.

**Q.** What about the plant protoplast viability (plant protoplasts; culture medium contains about 30 millimolar) of the same molecule?
**A.** Its plant protoplast viability is “Beneficial effects”.
